Measurements as given in PubChem BioAssay (NCI).
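Cultured in 96-well plates, cells were exposed to test compound for 48 hours across five concentrations. TGI: total growth inhibition.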

Legend:
Test in all cases: NCI tumour cell line growth inhibition, 48 h
NCI-H522 lung = tested on: NCI-H522 lung
T-47D breast = tested on: T-47D breast
SF-295 CNS = tested on: SF-295 CNS
HT29 colon = tested on: HT29 colon
HCC-2998 colon = tested on: HCC-2998 colon
SK-OV-3 ovarian = tested on: SK-OV-3 ovarian
HCT-116 colon = tested on: HCT-116 colon
COLO 205 colon = tested on: COLO 205 colon
NCI-H460 lung = tested on: NCI-H460 lung
SNB-75 CNS = tested on: SNB-75 CNS
SN12C renal = tested on: SN12C renal
ACHN renal = tested on: ACHN renal
HS 578T breast = tested on: HS 578T breast
IGROV1 ovarian = tested on: IGROV1 ovarian

Measured: TGI

O=C1CCCCc2cccc(O)c21
> 100 µM: all assays above
